≈ marks a conversion by molar mass, not a printed value. Where two headings read alike, the source gives them in different places.
Legend:
[1] = solubility; type: physicochemical
[2] = metabolic profile in hepatic fractions; type: in vitro ADME, human, dog, rabbit, rat, and mouse; conditions: phase I biotransformation pathways
Method: The metabolic profile and stability of LPT99 was characterized in human, dog, rabbit, rat, and mouse microsomal and S9 fractions, and in human cytosolic fractions. LPT99 was extensively metabolized (>90% metabolized after 1 hour) in microsomal and S9 hepatic fractions in all tested species. Up to nine (9) metabolites were formed through phase I biotransformation pathways. The most abundant metabolites were identified as single hydroxylation, double hydroxylation, and demethylation plus double hydroxylation. […] In the rabbit S9 fraction, the quantity of detected metabolites was less than in the human S9 fraction.

[3] = worst-case human plasma concentration estimate; conditions: assumed maximum clinical dose 200 μg, human plasma volume 2400 mL
Method: These bioavailability values are similar to those described for other drugs formulated in POLOXAMER® gels and administered IT (Honeder, et al., Audiol. Neurootol. 2014, 19(3), 193-202; Wang, et al., Audiol. Neurootol. 2011, 16(4), 233-41; Yang, et al., Sci. Transl. Med. 2016, 8(356), 356ra120). Assuming a maximum clinical dose of 200 μg LPT99 and an average human plasma volume of 2400 mL (for an average 60-kg individual [typical blood plasma volume in males is ˜39 mL/kg of body weight, and in females ˜40 mL/kg]).

[4] = test system: caspase 3; assay: CisPt-induced caspase 3 activation in HEI-OC1 cells; type: cell-based
Method: To identify off-target activities of LPT99, its selectivity against a panel of receptors (44 G-protein-coupled receptors [GPCR] and 4 non-GPCR), 4 ion channels, and 3 transporters were analyzed. The cell line, HEI-OC1 (house ear institute organ of Corti 1), which expresses several characteristic markers of the organ of Corti sensory cells (Kalinec, et al., Audiol. Neurootol. 2003, 8(4), 177-89), was used to evaluate the efficacy of LPT99 in preventing apoptosis due to […]. Cells were pre-incubated with LPT99, followed by […] for 24 hours.

[5] = test system: caspase 3; conditions: cellular model of CisPt-induced apoptosis; IEB Symposium abstracts 2016; cited from earlier work
[6] = calculation of the maximum recommended starting dose (MRSD); parameters: species or system human
Method: For the calculation of the maximum recommended starting dose (MRSD) the following parameters have been considered:
The total perilymph volume in rat will be then: (Cochlearperilymph+Semicircular canalsperilymph)=STperilymph+SVperilymph+Semicircular canalsperilymph=1.04+1.59+0.9=3.53 μl
The total perilymph volume in human has been described to be 158 μl (Buckingham and Valvassori, Ann. Otol. Rhinol. Laryngol. 2001, 110(2), 113-7).
The amount of LPT99 to be injected in humans is normalized with the volumes of perilymph in rats and humans and the amount injected at the NOAEL dose as follows: LPT99 injected,rats/Volume perilymphrats=LPT99 injected,humans/Volume perilymphhumans 15 μg/3.53 μl=Y μg/158 μl; Y=671.38 μg.
MRSD should not exceed that which is calculated to deliver 1/10th of the estimated perilymph concentration of LPT99 in rat at the NOAEL, when normalized to the perilymph volume in humans. 67.14 μg ( 1/10 of 671.38 μg) is calculated as the maximum mass of LPT99 to be delivered in a volume of 200 μl. The MRSD would be then 67.14 μg/200 μl=535 μM.

SMILES: COc1ccc2[nH]cc(CCNC(=O)CC3C(=O)N(CCc4ccc(Cl)cc4Cl)CC(=O)N3CCc3cccs3)c2c1 (centres unmarked) [LPT99, 2-(4-(2,4-dichlorophenethyl)-3,6-dioxo-1-(2-(thiophen-2-yl)ethyl)piperazin-2-yl)-N-(2-(5-methoxy-1H-indol-3-yl)ethyl)acetamide]
- increase in drug solubility ([1]; 14.7 wt/wt % vehicle vs aqueous): 332 fold
- solubility ([1]; aqueous (not further specified), read-out: aqueous solubility): 2.4 µM (≈ 1.51 µg/mL)
- solubility ([1]; aqueous with cosolvent or surfactant or cyclodextrin, 14.7 wt/wt %, read-out: solubility in 14.7 wt/wt % vehicle): ≥ 797 µM
- number of metabolites formed [2]: ≤ 9
- plasma LPT99 concentration if IT dose were 100% bioavailable [3]: 0.066 µM
- caspase 3 activation in the cellular model ([4]; cellular model of CisPt-induced apoptosis): reduced caspase-3 activation
- IC50 ([4]; read-out: 50% inhibitory concentration (IC50) for caspase 3, HEI-OC1 cells pre-incubated with LPT99, then CisPt for 24 hours): 5.2 ± 1.6 µM
- caspase-3 activation [5]: reduced caspase-3 activation
- MRSD ([6]; human): 535 µM
- maximum mass of LPT99 to be delivered (1/10 of NOAEL equivalent) ([6]; in a volume of 200 μl): 67.14 µg
- amount of LPT99 to be injected in humans normalized by perilymph volume at the NOAEL ([6]; rat 3.53 μl vs human 158 μl perilymph): 671.38 µg
